In ChEMBL document CHEMBL1134411, “Antitumor benzothiazoles. 14. Synthesis and in vitro biological properties of fluorinated 2-(4-aminophenyl)benzothiazoles” (2001):

How the values were obtained:
Type in all cases: functional
[1] = Growth inhibition against ovarian cancer cell line IGROV1; settings: Homo sapiens, IGROV-1
MCF7 = assay: Growth inhibition against breast cancer line MCF-7; settings: Homo sapiens
[2] = Mean GI50 values are recorded over the NCI 60-cell panel.; settings: Homo sapiens
NCI-H226 = assay: Growth inhibition against non-small cell lung cancer cell line […]; settings: Homo sapiens
OVCAR-4 = assay: Growth inhibition against ovarian cancer cell line OVCAR-4; settings: Homo sapiens
OVCAR-5 = assay: Growth inhibition against ovarian cancer cell line OVCAR-5; settings: Homo sapiens
T47D = assay: Growth inhibition against breast cancer line T-47-D; settings: Homo sapiens
[3] = Growth inhibition against cancer cell line TH-10; settings: Homo sapiens, Cancer cell lines
NCI-H460 = assay: Growth inhibition against non-small cell lung cancer cell line NCI-H460; settings: Homo sapiens
HCC 2998 = assay: Growth inhibition against colon cancer cell line HCC2998; settings: Homo sapiens

| Compound | GI50 [1] [nM] | GI50 (MCF7) [nM] | GI50 [2] [µM] | GI50 (NCI-H226) [µM] | GI50 (OVCAR-4) [µM] | GI50 (OVCAR-5) [nM] | GI50 (T47D) [nM] | GI50 [3] [nM] | GI50 (NCI-H460) [nM] | GI50 (HCC 2998) [µM] |
| --- | --- | --- | --- | --- | --- | --- | --- | --- | --- | --- |
| Cc1cc(-c2nc3ccccc3s2)ccc1N | < 10 | < 10 | 12.9 | 18.6 | 1.1 | 1900 | 20 | < 10 | 29500 |  |
| Cc1cc(-c2nc3ccc(O)cc3s2)ccc1N | 47900 | 56200 | 41.7 | 60.3 | 37.2 | 83200 | 22400 | 77600 |  | > 100 |
| Nc1ccc(-c2nc3ccc(F)cc3s2)cc1 | 21300 | < 10 | 30.2 | 46.8 | 22.9 | 26900 |  | 26300 | 24500 | 17.8 |
| Nc1ccc(-c2nc3cc(F)ccc3s2)cc1 | 11500 | < 10 | 23.4 | < 0.01 | 13.5 | 29500 | 260 | 11500 | 870 |  |
| Cc1cc(-c2nc3cc(F)ccc3s2)ccc1N | < 10 | < 10 | 4.4 | 1.3 | < 0.01 | < 10 | < 10 | < 10 | 50 |  |
| Nc1ccc(-c2nc3cc(F)ccc3s2)cc1Br | < 10 | < 10 | 5.1 | 0.13 | 24 | 50 | 20 | 50 | 110 | < 0.01 |
| Cc1cc(-c2nc3cccc(F)c3s2)ccc1N | 70 | < 10 | 20 |  | 7.4 | 1300 | 20 | 40 | 4200 | 13.8 |
| Nc1ccc(-c2nc3ccc(F)cc3s2)cc1Cl | < 10 | < 10 | 22.3 | 14.1 | 0.02 | 70 |  | < 10 | 100 | 0.09 |
| Nc1ccc(-c2nc3cc(F)ccc3s2)cc1I | < 10 | < 10 | 7.6 | 10.2 | < 0.01 | 280 | 130 | 70 |  | < 0.01 |
| Cc1cc(-c2nc3cc(F)c(F)cc3s2)ccc1N | < 10 | < 10 | 67.6 |  | 60.3 | > 100000 | < 10 | < 10 | > 100000 | > 100 |
| Nc1ccc(-c2nc3ccc(F)cc3s2)cc1I | < 10 | < 10 | 33.9 | 0.07 | 0.03 | 100 | < 10 | < 10 | > 100000 | 0.32 |
| Nc1ccc(-c2nc3ccccc3s2)cc1F | < 10 | < 10 | 14.5 | < 0.01 | 18.6 | < 10 | < 10 | < 10 | < 10 | 0.1 |
| Nc1ccc(-c2nc3cc(F)ccc3s2)cc1Cl | < 10 | < 10 | 5.8 | 0.03 | 0.32 | < 10 | 40 |  | 40 |  |
| Cc1cc(-c2nc3c(F)cccc3s2)ccc1N | 22900 | < 10 | 34.6 | 5.5 | 20.9 | 1700 | < 10 |  | 1000 | > 100 |
| Nc1ccc(-c2nc3ccccc3s2)cc1C(F)(F)F | 2600 | 1500 | 14.1 | 15.1 | 15.8 | 17400 | 5400 | 13200 | 14500 | 10.7 |
| Cc1cc(-c2nc3ccc(F)cc3s2)ccc1N | 1300 | < 10 | 47.9 | 60.3 | 0.01 | > 100000 |  | < 10 | 100 | 34.7 |
